# Laboratory results taken from patent US6620828B2, “Thiazole compounds and pharmaceutical compositions for inhibiting protein kinases and methods for their use” (Agouron Pharmaceuticals, Inc., priority 1999, dated 2003).
# Where two headings read alike, the source gives them in different places.
# Test system: human umbilical vein endothelial cells (HUVEC)
# Experiment: HUVEC proliferation assay
# Format: cell-based
# Conditions: Homo sapiens, HUVEC; for inhibition at 0.001 µM: 1 nM; for inhibition at 0.01 µM: 10 nM; for inhibition at 0.15 µM: Table I screening results, 150 nM; for inhibition at 0.05 µM: 50 nM
# Procedure, shortened: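 Exponentially growing HUVEC were serum-starved 24 h (F12K + 1% FBS), pre-treated 1 h with compound (0.1% DMSO final), then stimulated with 6 ng/ml VEGF. Proliferation was read 72 h later by MTT reduction (A595). IC50 came from seven 0.5-log concentrations in triplicate; screens gave % inhibition relative to VEGF-only and starved wells.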
# [1] = Table II screening results, crude combinatorial amide library
# [2] = Table II screening results, crude combinatorial amide library, read-out: % inhibition @ 10 nM
# [3] = table following Table II (untitled), crude combinatorial library
# [4] = table following Table II (untitled), crude combinatorial library, read-out: % inhibition @ 10 nM
# [5] = crude combinatorial amide library
# [6] = Inhibition of HUVEC Proliferation, crude combinatorial urea library, read-out: % inhibition @ 50 nM
# [7] = Inhibition of HUVEC Proliferation, crude combinatorial urea library, read-out: Inhibition @ 50 nM
# [8] = crude combinatorial urea library, read-out: Inhibition of HUVEC Proliferation % inhibition @ 10 nM
# [9] = crude combinatorial urea library, read-out: Inhibition of HUVEC Proliferation % inhibition @ 50 nM
smiles,measurement,setting,value
CNC(=O)Nc1nc(N)c(-c2nc(-c3cccc(NC(=O)C4CC5CC(O)C4C5)c3)cs2)s1 (centres unmarked),inhibition at 0.001 µM,[1],20%
same,inhibition at 0.01 µM,[2],19%
COc1cc(Nc2nc(N)c(-c3nc(-c4cc(NC(=O)C(=O)C5=CCCCC5)ccc4C)no3)s2)cc(OC)c1OC,inhibition at 0.001 µM,[3],-36%
same,inhibition at 0.01 µM,[4],11%
CNC(=O)Nc1nc(N)c(-c2nc(-c3cccc(NC(=O)/C=C/C4C[C@H]5C=C[C@@H]4C5)c3)cs2)s1 (some centres unmarked),inhibition at 0.001 µM,[1],11%
same,inhibition at 0.01 µM,[2],50%
COc1cc(Nc2nc(N)c(-c3nc(-c4cc(NC(=O)C5CC(=O)OC5(C)C)ccc4C)no3)s2)cc(OC)c1OC (centres unmarked),inhibition at 0.001 µM,[3],-9%
same,inhibition at 0.01 µM,[4],12%
COc1cc(Nc2nc(N)c(-c3nc(-c4cccc(NC(=O)c5c[nH]cn5)c4)cs3)s2)cc(OC)c1OC,inhibition at 0.15 µM,[5],15%
COCCNC(=O)Nc1nc(N)c(-c2nc(-c3cc(NC(=O)c4cccc(OC)c4)c(F)cc3F)cs2)s1,inhibition at 0.05 µM,[6],21%
COc1cc(Nc2nc(N)c(-c3nc(-c4cc(NC(=O)C5CCN(C(C)=O)CC5)ccc4C)no3)s2)cc(OC)c1OC,inhibition at 0.001 µM,[3],-4%
same,inhibition at 0.01 µM,[4],16%
CCN(CC)CCCNC(=O)Nc1nc(N)c(-c2nc(-c3cc(NC(=O)c4cccc(OC)c4)c(F)cc3F)cs2)s1,inhibition at 0.05 µM,[6],89%
COc1cc(Nc2nc(N)c(-c3nc(-c4cccc(NC(=O)c5sc(C)nc5C)c4)cs3)s2)cc(OC)c1OC [drawing 894],inhibition at 0.15 µM,[5],19%
COc1cc(Nc2nc(N)c(-c3nc(-c4cc(NC(=O)[C@H](O)C(C)(C)C)ccc4C)no3)s2)cc(OC)c1OC,inhibition at 0.001 µM,[3],-34%
same,inhibition at 0.01 µM,[4],-11%
COc1cccc(C(=O)Nc2cc(-c3noc(-c4sc(NC(=O)NCCCN5CCCCCC5)nc4N)n3)c(F)cc2F)c1,inhibition at 0.05 µM,[7],21%
CCN(CC)CCCC(C)NC(=O)Nc1nc(N)c(-c2nc(-c3cccc(NC(=O)c4cccc(OC)c4)c3)cs2)s1 (centres unmarked),inhibition at 0.01 µM,[8],7%
same,inhibition at 0.05 µM,[9],68%
COc1cccc(C(=O)Nc2cc(-c3noc(-c4sc(NC(=O)NCC(=N)N)nc4N)n3)c(F)cc2F)c1,inhibition at 0.05 µM,[7],65%
COc1cc(Nc2nc(N)c(-c3nc(-c4cccc(NC(=O)c5ccc6ncccc6c5)c4)cs3)s2)cc(OC)c1OC,inhibition at 0.15 µM,[5],26%
COc1cc(Nc2nc(N)c(-c3nc(-c4cccc(NC(=O)C5CCCCCC5)c4)cs3)s2)cc(OC)c1OC,inhibition at 0.15 µM,[5],13%
COc1cccc(C(=O)Nc2cc(-c3noc(-c4sc(NC(=O)NCCCCCCN(C)C)nc4N)n3)c(F)cc2F)c1,inhibition at 0.05 µM,[7],-6%
CNC(=O)Nc1nc(N)c(-c2nc(-c3cccc(NC(=O)[C@@]45C[C@@H]6C[C@@H]4CC6(C)C5)c3)cs2)s1,inhibition at 0.001 µM,[1],-20%
same,inhibition at 0.01 µM,[2],2%
COc1cccc(C(=O)Nc2cccc(-c3csc(-c4sc(NC(=O)NCCC(C)C)nc4N)n3)c2)c1,inhibition at 0.01 µM,[8],25%
same,inhibition at 0.05 µM,[9],18%
COc1cccc(C(=O)Nc2cccc(-c3csc(-c4sc(NC(=O)NCC(C)(C)CO)nc4N)n3)c2)c1,inhibition at 0.01 µM,[8],7%
same,inhibition at 0.05 µM,[9],88%
CCC(CO)NC(=O)Nc1nc(N)c(-c2nc(-c3cccc(NC(=O)c4cccc(OC)c4)c3)cs2)s1 (centres unmarked),inhibition at 0.01 µM,[8],13%
same,inhibition at 0.05 µM,[9],62%
COc1cc(Nc2nc(N)c(-c3nc(-c4cccc(NC(=O)/C=C/c5ccccn5)c4)cs3)s2)cc(OC)c1OC,inhibition at 0.15 µM,[5],-7%
CNC(=O)Nc1nc(N)c(-c2nc(-c3cccc(NC(=O)Cn4ccc5ccccc54)c3)cs2)s1,inhibition at 0.001 µM,[1],4%
same,inhibition at 0.01 µM,[2],-15%
COc1cccc(C(=O)Nc2cc(-c3csc(-c4sc(NC(=O)NCCC(C)C)nc4N)n3)c(F)cc2F)c1,inhibition at 0.05 µM,[6],55%
COc1cccc(C(=O)Nc2cc(-c3noc(-c4sc(NC(=O)NC(=O)NCC5(O)CCCCC5)nc4N)n3)c(F)cc2F)c1,inhibition at 0.05 µM,[7],99%
COc1cccc(C(=O)Nc2cc(-c3noc(-c4sc(NC(=O)NCCC5CCCN5C)nc4N)n3)c(F)cc2F)c1 (centres unmarked),inhibition at 0.05 µM,[7],104%
CNC(=O)Nc1nc(N)c(-c2nc(-c3cccc(NC(=O)c4cccc(OC)c4)c3)cs2)s1 [drawing 1034],inhibition at 0.001 µM,[1],2%
same,inhibition at 0.01 µM,[2],91%
COc1cc(Nc2nc(N)c(-c3nc(-c4cc(NC(=O)C5CCCC(OC)C5)ccc4C)no3)s2)cc(OC)c1OC (centres unmarked),inhibition at 0.001 µM,[3],-4%
same,inhibition at 0.01 µM,[4],19%
COc1cc(Nc2nc(N)c(-c3nc(-c4cc(NC(=O)Cc5cn(C)cn5)ccc4C)no3)s2)cc(OC)c1OC,inhibition at 0.001 µM,[3],-7%
same,inhibition at 0.01 µM,[4],-14%
COc1cc(Nc2nc(N)c(-c3nc(-c4cc(NC(=O)C5=C[C@@H](O)[C@@H](O)[C@H](O)C5)ccc4C)no3)s2)cc(OC)c1OC,inhibition at 0.001 µM,[3],4%
same,inhibition at 0.01 µM,[4],6%
CNC(=O)Nc1nc(N)c(-c2nc(-c3cccc(NC(=O)c4ccc(C(C)(C)C)o4)c3)cs2)s1,inhibition at 0.001 µM,[1],2%
same,inhibition at 0.01 µM,[2],69%
